Reference: patent US7045512B2 (priority 2003, dated 2006)

Assays:
[1] = system: Phytophthora infestans; test: microbe, parasite or virus in culture; type: cell-based
[2] = system: Rhizoctonia solani; test: microbe, parasite or virus in culture; type: cell-based
[3] = system: Erysiyphe graminis f.sp. hordei; test: Foliar spray for the control of barley powdery mildew; type: in vivo; conditions: greenhouse foliar spray, barley plants; for pest or weed control at 300 ppm: Hordeum vulgare, read-out: Foliar Application (Percent Control) Barley Powdery Mildew
Procedure: Foliar Spray for the Control of Barley Powdery Mildew caused by Erysiyphe graminis f.sp. hordei
Technical grade material at defined ppm rates (w/v) in an acetone:water mixture (1:9) containing 0.1% Tween 20 (v/v) is sprayed to near run-off onto 7-days-old greenhouse-grown barley plants (var. “Robust”) at the cotyledon stage. Treated plants are inoculated within 24 hours by brushing mildew-infected plants over the treated plants. Inoculated plants are kept in the greenhouse for 6–8 days for disease development. Disease severity is examined and the % control is calculated as [% disease on untreated plants−% disease on treated plants]/% diseases in untreated plants. The results of these tests are shown in Table 2A below under the heading “Foliar Application—Barley Powdery Mildew”.

[4] = system: Botrytis cinerea; test: microbe, parasite or virus in culture; type: cell-based
[5] = system: Barley Powdery Mildew; test: Soil drench for the control of barley powdery mildew; type: in vivo, Erysiyphe graminis f.sp. hordei; conditions: 300 ppm, greenhouse soil drench
Procedure: (§1) Soil Drench for the Control of Barley or Cucumber Powdery Mildew
(§2) Technical grade material formulated as described for foliar sprays is dispensed at defined rates (ml/cm^3) into the soil in the pots for barley and cucumber in the stages as described for the foliar sprays. Treated plants are inoculated, within 24 hours with the respective powdery mildew species as described for the foliar spray tests. Inoculated plants are kept in the greenhouse for 6–8 days for disease development. Disease severity is examined and the % control is calculated as [% disease on untreated plants−% disease on treated plants]/% disease on untreated plants. The results of these tests are shown in Table 2B below under the heading “Drench Application—Barley Powdery Mildew” and “Drench Application—Cucumber Powdery Mildew”.

[6] = system: Fusarium nivale; test: microbe, parasite or virus in culture; type: cell-based
[7] = system: Pyricularia oryzae; test: whole plant or invertebrate; type: in vivo; conditions: for pest or weed control at 300 ppm: Pyricularia oryzae, foliar, read-out: Foliar Application (Percent Control) Rice Blast
[8] = system: Botrytis cinerea; test: Foliar spray for the control of geranium gray mold; type: in vivo; conditions: 300 ppm, greenhouse foliar spray, geranium plants
Procedure: Foliar Spray for the Control of Geranium Gray Mold Caused by Botrytis cinerea
Technical grade material at defined ppm rates (w/v) in an acetone:water mixture (1:9) containing 0.1% Tween 20 (v/v) is sprayed to near run-off onto mature greenhouse-grown geranium plants (var. “Pinto White”) in the second leaf stage. Treated plants are inoculated within 24 hours with an aqueous suspension of approximately 100,000 conidia/ml of Botrytis cinerea grown on artificial medium. Inoculated plants are placed into a high humidity chamber for 5 days and then transferred to the greenhouse for one day for disease development. Disease severity is examined and the % control is calculated as [% disease on untreated plants−% disease on treated plants]/% disease on untreated plants. The results of these tests are shown in Table 2A below under the heading “Foliar Application—Geranium Gray Mold”.

[9] = system: Helminthosporium sativum; test: Foliar spray for the control of barley blotch; type: in vivo; conditions: greenhouse foliar spray, barley plants; for pest or weed control at 300 ppm: Helminthosporium, read-out: Foliar Application (Percent Control) Barley Blotch
Procedure: Foliar Spray for the Control of Barley Blotch Caused by Helminthosporium sativum
Technical grade material at defined ppm rates (w/v) in an acetone:water mixture (1:9) containing 0.1% Tween 20 (v/v) is sprayed to near run-off onto 7-days-old greenhouse-grown barley plants (var. “Robust”) at the cotyledon stage. Treated plants are inoculated within 24 hours from spraying with an aqueous suspension of approximately 15,000 conidia/ml of Helminthosporium sativum grown on artificial medium. Inoculated plants are placed into a high humidity chamber for 24 hr and then transferred to the greenhouse for 4–5 days for disease development. Disease severity is examined and the % control is calculated as [% disease on untreated plants−% disease on treated plants]/% disease on untreated plants.
The results of these tests are shown in Table 2A below under the heading “Foliar Application—Barley Blotch”.

[10] = system: Phytophthora infestans; type: in vivo; conditions: 300 ppm, greenhouse foliar spray, tomato plants
[11] = system: Sclerotium rolfsii; type: cell-based
[12] = system: Uromyces appendiculatus; test: Foliar spray for the control of bean rust; type: in vivo; conditions: 300 ppm, greenhouse foliar spray, Pinto bean plants
Procedure: Foliar Spray for the Control of Bean Rust Caused by Uromyces appendiculatus
Technical grade material at defined ppm rates (w/v) in an acetone:water mixture (1:9) containing 0.1% Tween 20 (v/v) is sprayed to near run-off onto 10-days-old greenhouse-grown Pinto bean plants (var. “Othello”) in the second leaf stage. Treated plants are inoculated within 24 hours with an aqueous suspension of approximately 20,000 uredospores of Uromyces appendiculatus harvested from rust-infected plants. Inoculated plants are placed into a high humidity chamber for 24 hr and then transferred to the greenhouse for two weeks for disease development. Disease severity is examined and the % control is calculated as [% disease on untreated plants−% disease on treated plants]/% disease on untreated plants. The results of these tests are shown in Table 2A below under the heading “Foliar Application—Bean Rust”.

[13] = system: Pythium ultimum; test: microbe, parasite or virus in culture; type: cell-based
[14] = system: Cucumber Powdery Mildew; test: Soil drench for the control of cucumber powdery mildew; type: in vivo; conditions: 300 ppm, greenhouse soil drench
Procedure: as §1, §2

[15] = Phytophthora infestans, 48 h, read-out: Percent Control Phytophthora infestants
[16] = Rhizoctonia solani, 48 h, read-out: Percent Control Rhizoctonia solani
[17] = Botrytis cinerea, 48 h, read-out: Percent Control Botrytis cinerea
[18] = Microdochium nivale, 48 h, read-out: Percent Control Fusarium nivale
[19] = Globisporangium ultimum, 48 h, read-out: Percent Control Pythium ultimum

SMILES	inhibition of growth at 100 ppm [1, 15] [%]	inhibition of growth at 100 ppm [2, 16] [%]	pest or weed control at 300 ppm [3] [%]	inhibition of growth at 100 ppm [4, 17] [%]	Drench Application (Percent Control) Barley Powdery Mildew [5] [%]	inhibition of growth at 100 ppm [6, 18] [%]	pest or weed control at 300 ppm [7] [%]	Foliar Application (Percent Control) Geranium Gray Mold [8] [%]	pest or weed control at 300 ppm [9] [%]	Foliar Application (Percent Control) Tomato Late Blight [10] [%]	Percent Control Sclerotium rolfsii [11] [%]	Foliar Application (Percent Control) Bean Rust [12] [%]	inhibition of growth at 100 ppm [13, 19] [%]	Drench Application (Percent Control) Cucumber Powdery Mildew [14] [%]	inhibition of growth at 10 ppm [1, 15] [%]	inhibition of growth at 10 ppm [2, 16] [%]	inhibition of growth at 10 ppm [4, 17] [%]	inhibition of growth at 10 ppm [6, 18] [%]	inhibition of growth at 10 ppm [13, 19] [%]	also measured
CC(C)OC(=O)NNc1ccc(Oc2cccc(C(F)(F)F)c2)cc1 [Compound 1, 1-methylethyl 2-[4-[3-(trifluoromethyl)phenoxy]phenyl]hydrazinecarboxylate]	100	91	90	100	0	29	79	87	97	12	100	97	100	0						
CC(C)OC(=O)NN(C(=O)C(F)(F)F)c1ccc(Oc2cccc(C(F)(F)F)c2)cc1 [Compound 2, 1-methylethyl 2-(trifluoroacetyl)-2-[4-[3-(trifluoromethyl)phenoxy]phenyl]-hydrazine carboxylate]	100	82	25	90	0	20	15		99		67	0	100	0						
CC(C)OC(=O)NN(C)c1ccc(Oc2cccc(C(F)(F)F)c2)cc1 [Compound 3, 1-methylethyl 2-methyl-2-[4-[3-(trifluoromethyl)phenoxy]phenyl]hydrazine carboxylate]			62		0		10	87	0			0		0						inhibition of growth at 50 ppm [1, 15]: 79%; inhibition of growth at 50 ppm [2, 16]: 63%; inhibition of growth at 50 ppm [4, 17]: 100%; inhibition of growth at 50 ppm [6, 18]: 82%; inhibition of growth at 50 ppm [13, 19]: 100%
CC(C)OC(=O)NN(C(=O)C(F)(F)F)c1ccc(Oc2cccc(Cl)c2)nc1 [Compound 6]					0			82		0	98	0		0						Percent Control Phytophthora infestants ([1]; in vitro, rate 100 ppm, 48 hours): 100%; Percent Control Rhizoctonia solani [2]: 100%; Foliar Application (Percent Control) Barley Powdery Mildew ([3]; 300 ppm): 0%; Percent Control Botrytis cinerea [4]: 98%; Percent Control Fusarium nivale [6]: 71%; Foliar Application (Percent Control) Rice Blast ([7]; 300 ppm, greenhouse foliar spray, rice plants): 92%; Foliar Application (Percent Control) Barley Blotch ([9]; 300 ppm): 97%; Percent Control Pythium ultimum [13]: 25%
CC(=O)NNc1ccc(Oc2cccc(C(F)(F)F)c2)c(F)c1 [Compound 7, N′-{3-fluoro-4-[3-(trifluoromethyl)phenoxy]phenyl}acetohydrazide]			80				0	80	80	0					0	80	30	8	8	
CC(C)OC(=O)NNc1ccc(-c2cccc(C(F)(F)F)c2)c(F)c1 [Compound 8, isopropyl 2-[2-fluoro-3′-(trifluoromethyl)-1,1′-biphenyl-4-yl]hydrazine-carboxylate]			0				70	90	98	0					18	58	63	22	26	
CC(C)OC(=O)N=Nc1ccc(Oc2cccc(C(F)(F)F)c2)cc1 [Compound 9, 1-methylethyl [4-[3-(trifluoromethyl)phenoxy]phenyl]diazene carboxylate]	9	22	15	77	25	75	98		97		91	45	0	0						
CC(C)OC(=O)N1CN(C)CN1c1ccc(Oc2cccc(C(F)(F)F)c2)c(F)c1 [Compound 10, 1-methylethyl 2-[3-fluoro-4-[3-(trifluoromethyl)phenoxy]phenyl]-4-methyl-1,2,4-triazolidine-1-carboxylate]	0	79	100	0		0	0	0	90				0							
CCC(=NNc1ccc(Oc2cccc(C(F)(F)F)c2)c(F)c1)[N+](=O)[O-] [Compound 12, 1-{3-fluoro-4-[3-(trifluoromethyl)phenoxy]phenyl}-2-(1-nitropropylidene)-hydrazine]			80				0	0	0	0					0	68	18	20	3	
